{
  "source": "patent US7767860B2",
  "about": "“Substituted amino alcohols” (Auspex Pharmaceuticals, Inc, priority 2007, dated 2010)",
  "origin": "cited, not measured here",
  "tested_on": "Mycobacterium tuberculosis",
  "details": "fold more potent; Hausler et al 2001; Stauffer et al 2002",
  "data": [
    {"smiles": "CC[C@@H](CO)NCCN[C@@H](CC)CO", "note": "[Ethambutol, 2-[2-(1-hydroxybutan-2-ylamino)ethylamino]butan-1-ol]", "values": [
      {"measurement": "potency of the (S,S)-enantiomer relative to the (R,R)-enantiomer and the meso-isomer", "result": "200-500 times"}
    ]}
  ]
}
